Measured values reported in US10202658B2, “Methods for determining hypersusceptibility of HIV-1 to non-nucleoside reverse transcriptase inhibitors” (Monogram Biosciences, Inc., priority 2005, dated 2019).

Tested on: HIV-1 clinical isolates grouped by RT mutations
Assay: Pairwise comparison of NNRTI fold change between groups of clinical isolates (Student's T-test, Bonferroni's Multiple Comparison Test)
Type: cell-based
Procedure: This example provides methods and compositions for identifying mutations that correlate with hypersusceptibility to a NNRTI. Resistance test vectors were constructed and used as described in Example 1. Resistance test vectors derived from patient samples or clones derived from the resistance test vector pools were tested in a resistance assay to determine accurately and quantitatively the relative EFV, DLV, or NVP resistance or susceptibility compared to the median observed resistance or susceptibility.
To identify mutations associated with NNRTI hypersusceptibility, the following analysis was performed. […] The TAMs referenced in. Table 1 include M41L, D67N, K70R, L210W, T215FY, and K219X, while the NAMs referenced include K65R, T69X, L74IV, V75X, and M184IV. Isolates without NRTI, NNRTI or PI mutations served as a wild type (WT) reference group. Further comparison groups comprised isolates with three TAMS including T215Y (+/−H208Y, +/−V118I) or three TAMS including K70R. Scatter plots and statistical tests (See FIGS. 1-6) were generated using Prism 4.0 (GraphPad, San Diego, Calif.)
In addition, a pairwise comparison between two sets of data was conducted using Bonferroni's Multiple Comparison Test using the Prism 4.0 software. The results of the comparison are presented in Tables 2, 3, and 4, appended to the end of this document. Samples with K65R, K65R+M184V, or 2 TAMs in combination with T215Y had over 40% with EFV FC<0.4.

Q: What does the source list for `Cc1ccnc2c1NC(=O)c1cccnc1N2C1CC1` [NVP, nevirapine]?
A: Mean Diff. of fold change (1 NAM vs 2 NAMs): 0.2694; Mean Diff. of fold change (1 NAM vs 3 NAMs): 0.221; Mean Diff. of fold change (1 NAM vs K65R): 0.3361; Mean Diff. of fold change (1 NAM vs K65R + M184V): 0.3786; Mean Diff. of fold change (1 NAM vs K70R_3_TAMs): 0.08835; Mean Diff. of fold change (1 NAM vs M184V): −0.01357; Mean Diff. of fold change (1 NAM vs T69): −0.03843; Mean Diff. of fold change (1 NAM vs T215Y_3_TAMs): 0.211; Mean Diff. of fold change (1 NAM vs T215Y_3_TAMs_118): 0.2013; Mean Diff. of fold change (1 NAM vs T215Y_3_TAMs_208): 0.2552; Mean Diff. of fold change (1 NAM vs T215Y_3_TAMs_no118): 0.2175; Mean Diff. of fold change (1 NAM vs T215Y_3_TAMs_no208): 0.204; Mean Diff. of fold change (2 NAMs vs 3 NAMs): −0.04846; Mean Diff. of fold change (2 NAMs vs K65R): 0.06669; Mean Diff. of fold change (2 NAMs vs K65R + M184V): 0.1092; Mean Diff. of fold change (2 NAMs vs K70R_3_TAMs): −0.1811; Mean Diff. of fold change (2 NAMs vs M184V): −0.283; Mean Diff. of fold change (2 NAMs vs T69): −0.3079; Mean Diff. of fold change (2 NAMs vs T215Y_3_TAMs): −0.05842; Mean Diff. of fold change (2 NAMs vs T215Y_3_TAMs_118): −0.06817; Mean Diff. of fold change (2 NAMs vs T215Y_3_TAMs_208): −0.01419; Mean Diff. of fold change (2 NAMs vs T215Y_3_TAMs_no118): −0.05192; Mean Diff. of fold change (2 NAMs vs T215Y_3_TAMs_no208): −0.06547; Mean Diff. of fold change (3 NAMs vs K65R): 0.1151; Mean Diff. of fold change (3 NAMs vs K65R + M184V): 0.1577; Mean Diff. of fold change (3 NAMs vs K70R_3_TAMs): −0.1326; Mean Diff. of fold change (3 NAMs vs M184V): −0.2345; Mean Diff. of fold change (3 NAMs vs T69): −0.2594; Mean Diff. of fold change (3 NAMs vs T215Y_3_TAMs): −0.009962; Mean Diff. of fold change (3 NAMs vs T215Y_3_TAMs_118): −0.01971; Mean Diff. of fold change (3 NAMs vs T215Y_3_TAMs_208): 0.03427; Mean Diff. of fold change (3 NAMs vs T215Y_3_TAMs_no118): −0.003462; Mean Diff. of fold change (3 NAMs vs T215Y_3_TAMs_no208): −0.01701; Mean Diff. of fold change (K65R + M184V vs K70R_3_TAMs): −0.2903; Mean Diff. of fold change (K65R + M184V vs T215Y_3_TAMs): −0.1676; Mean Diff. of fold change (K65R + M184V vs T215Y_3_TAMs_118): −0.1774; Mean Diff. of fold change (K65R + M184V vs T215Y_3_TAMs_208): −0.1234; Mean Diff. of fold change (K65R + M184V vs T215Y_3_TAMs_no118): −0.1611; Mean Diff. of fold change (K65R + M184V vs T215Y_3_TAMs_no208): −0.1747; Mean Diff. of fold change (K65R vs K65R + M184V): 0.04252; Mean Diff. of fold change (K65R vs K70R_3_TAMs): −0.2478; Mean Diff. of fold change (K65R vs M184V): −0.3497; Mean Diff. of fold change (K65R vs T69): −0.3746; Mean Diff. of fold change (K65R vs T215Y_3_TAMs): −0.1251; Mean Diff. of fold change (K65R vs T215Y_3_TAMs_118): −0.1349; Mean Diff. of fold change (K65R vs T215Y_3_TAMs_208): −0.08088; Mean Diff. of fold change (K65R vs T215Y_3_TAMs_no118): −0.1186; Mean Diff. of fold change (K65R vs T215Y_3_TAMs_no208): −0.1322; Mean Diff. of fold change (K70R_3_TAMs vs T215Y_3_TAMs_118): 0.1129; Mean Diff. of fold change (K70R_3_TAMs vs T215Y_3_TAMs_no118): 0.1292; Mean Diff. of fold change (M184V vs K65R + M184V): 0.3922; Mean Diff. of fold change (M184V vs K70R_3_TAMs): 0.1019; Mean Diff. of fold change (M184V vs T69): −0.02486; Mean Diff. of fold change (M184V vs T215Y_3_TAMs): 0.2246; Mean Diff. of fold change (M184V vs T215Y_3_TAMs_118): 0.2148; Mean Diff. of fold change (M184V vs T215Y_3_TAMs_208): 0.2688; Mean Diff. of fold change (M184V vs T215Y_3_TAMs_no118): 0.2311; Mean Diff. of fold change (M184V vs T215Y_3_TAMs_no208): 0.2175; Mean Diff. of fold change (T69 vs K65R + M184V): 0.4171; Mean Diff. of fold change (T69 vs K70R_3_TAMs): 0.1268; Mean Diff. of fold change (T69 vs T215Y_3_TAMs): 0.2494; Mean Diff. of fold change (T69 vs T215Y_3_TAMs_118): 0.2397; Mean Diff. of fold change (T69 vs T215Y_3_TAMs_208): 0.2937; Mean Diff. of fold change (T69 vs T215Y_3_TAMs_no118): 0.2559; Mean Diff. of fold change (T69 vs T215Y_3_TAMs_no208): 0.2424; Mean Diff. of fold change (T215Y_3_TAMs vs K70R_3_TAMs): −0.1227; Mean Diff. of fold change (T215Y_3_TAMs vs T215Y_3_TAMs_118): −0.00975; Mean Diff. of fold change (T215Y_3_TAMs vs T215Y_3_TAMs_208): 0.04423; Mean Diff. of fold change (T215Y_3_TAMs vs T215Y_3_TAMs_no118): 0.0065; Mean Diff. of fold change (T215Y_3_TAMs vs T215Y_3_TAMs_no208): −0.007051; Mean Diff. of fold change (T215Y_3_TAMs_208 vs K70R_3_TAMs): −0.1669; Mean Diff. of fold change (T215Y_3_TAMs_208 vs T215Y_3_TAMs_118): −0.05398; Mean Diff. of fold change (T215Y_3_TAMs_208 vs T215Y_3_TAMs_no118): −0.03773; Mean Diff. of fold change (T215Y_3_TAMs_208 vs T215Y_3_TAMs_no208): −0.05128; Mean Diff. of fold change (T215Y_3_TAMs_no118 vs T215Y_3_TAMs_118): −0.01625; Mean Diff. of fold change (T215Y_3_TAMs_no208 vs K70R_3_TAMs): −0.1156; Mean Diff. of fold change (T215Y_3_TAMs_no208 vs T215Y_3_TAMs_118): −0.002699; Mean Diff. of fold change (T215Y_3_TAMs_no208 vs T215Y_3_TAMs_no118): 0.01355; mean fold change (FC) compared to the WT population (all groups containing NAMs or the combination of TAMs shown in Table 1, p<0.0001, Student's T-test): significantly lower; Mean Diff. of fold change (wt vs 1 NAM): 0.1982; Mean Diff. of fold change (wt vs 2 NAMs): 0.4677; Mean Diff. of fold change (wt vs 3 NAMs): 0.4192; Mean Diff. of fold change (wt vs K65R): 0.5344; Mean Diff. of fold change (wt vs K65R + M184V): 0.5769; Mean Diff. of fold change (wt vs K70R_3_TAMs): 0.2866; Mean Diff. of fold change (wt vs M184V): 0.1847; Mean Diff. of fold change (wt vs T69): 0.1598; Mean Diff. of fold change (wt vs T215Y_3_TAMs): 0.4092; Mean Diff. of fold change (wt vs T215Y_3_TAMs_118): 0.3995; Mean Diff. of fold change (wt vs T215Y_3_TAMs_208): 0.4535; Mean Diff. of fold change (wt vs T215Y_3_TAMs_no118): 0.4157; Mean Diff. of fold change (wt vs T215Y_3_TAMs_no208): 0.4022
